{"source": "patent US20260200923A1", "about": "“HETEROCYCLIC COMPOUNDS TARGETING THE NUDT5 PROTEIN” (Oxford University Innovation Limited, priority 2022, published 2026)", "key": {"[1]": {"biological_target": "T1, NUDT5 (Homo sapiens, UniProt Q9UKK9)", "experiment": "AMP-Glo catalytic assay, NUDT5", "assay_type": "biochemical", "conditions": "2 nM NUDT5, ADPr substrate, 20 minutes, mean±SD", "protocol": "(§1) To identify alternative X groups, a screening exercise was performed. […] Inhibition activities of the compounds were determined using AMP-Glo system (Promega). The compounds were diluted from 50 μM to 0 μM in a final reaction containing 20 mM Hepes, 100 mM NaCl, 0.5 mM TCEP, 1 mM MgCl2 and 0.1% BSA, pH 7.4. The reactions were performed in 1536 well plate in […] reaction volume with 2 nM of NUDT5 and NUDT14, and […] of ADPr as the substrate. The final DMSO concentration was 0.5% for all reactions. NUDT5 reactions were incubated for 20 minutes while NUDT14 reactions were carried out for 1 hour at room temperature. […] The reactions were further incubated with the 4 μl of Detection solution for 1 hour at room temperature. Luminescence signals were then measured in PHERAstar FSX plate reader. Experiments were done in triplicate sets and data were analysed by GraphPad Prism 9. Data are represented as the mean±SD of three biological experiments: […]"}, "[2]": {"biological_target": "T2, NUDT14 (Homo sapiens, UniProt O95848)", "T2 sequence (O95848 1-222)": "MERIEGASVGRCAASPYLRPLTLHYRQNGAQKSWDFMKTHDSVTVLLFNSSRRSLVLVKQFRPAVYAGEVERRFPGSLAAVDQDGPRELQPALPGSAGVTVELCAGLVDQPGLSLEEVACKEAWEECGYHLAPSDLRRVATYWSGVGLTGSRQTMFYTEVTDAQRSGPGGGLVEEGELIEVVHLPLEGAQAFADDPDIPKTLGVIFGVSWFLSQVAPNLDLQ", "experiment": "AMP-Glo catalytic assay, NUDT14", "assay_type": "biochemical", "protocol": "as §1"}, "[3]": {"system": "MTHFD1^K56R cells", "experiment": "growth of MTHFD1^K56R cells in adenosine-containing media", "assay_type": "cell-based", "conditions": "for effect on adenosine toxicity / viability: adenosine-containing media, 72 h", "protocol": "HAP1 (KBM7-derived, Horizon Discovery, C859), and HAP1 MTHFD1^KO, MTHFD1^K56R, and MTHFD1^K386E cell lines were cultured in Iscove's Modified Dulbecco's Medium (IMDM, Sigma), supplemented with 10% Fetal Bovine Serum (FBS, Sigma) and 1% Penicillin/Streptomycin (P/S, Sigma).\nMTHFD1^KO cells in dialyzed FBS media were treated with a single nucleotide or folic acid metabolite for 72 hours. Cells were then stained with Hoechst, imaged, and counted using an Operetta (Perkin Elmer). For the AMPK activator studies, cells were stained with Hoechst, imaged, and counted using an Opera (Perkin Elmer). Similarly, MTHFD1^K56R cells in dialyzed FBS media were treated with adenosine for 72 hours. Cells were then stained with Hoechst, imaged, and counted using an Operetta (Perkin Elmer)."}, "[4]": {"system": "HAP-1 cells", "experiment": "6-thioguanine assay (CellTiter-Glo viability)", "assay_type": "cell-based", "conditions": "0.2 μg/ml 6-thioguanine, 72 h; HAP1 (and NB4, FIG. 11)", "protocol": "NB-4 and HAP1 cells (1000 cells/well in 40 uL) were seeded onto a 384-well plate containing compounds. DMSO or 0.2 μg/ml 6-thioguanine (A4882, Sigma-Aldrich) was added into respective wells. After 72 h incubation cell viability was measured by using CellTiter-Glo 2.0 Assay (G9242, Promega). Compounds in the 384-well plates were prepared by using Echo Acoustic Dispenser."}, "[5]": {"system": "MTHFD1^K386E cells", "experiment": "growth of MTHFD1^K386E cells with adenosine", "assay_type": "cell-based", "conditions": "synthetase mutant cells", "protocol": "HAP1 (KBM7-derived, Horizon Discovery, […]), and HAP1 MTHFD1^KO, MTHFD1^[…], and MTHFD1^[…] cell lines were cultured in Iscove's Modified Dulbecco's Medium (IMDM, Sigma), supplemented with 10% Fetal Bovine Serum (FBS, Sigma) and 1% Penicillin/Streptomycin (P/S, Sigma)."}, "[6]": {"biological_target": "T3, NUDT5-CRBN interaction (Homo sapiens, UniProt Q96SW2+Q9UKK9)", "T3 construct": "expressed in transfected cells; host or cells: HEK293", "experiment": "NanoBRET ternary complex formation (protein-protein interaction) assay", "assay_type": "cell-based", "conditions": "HEK293 cells, 4 h", "protocol": "For NanoBRET protein-protein interaction assay, NanoBRET Nano-Glo Detection System (N1662, Promega) was used according to the manufacturer's instruction. In brief, 220,000 HEK293 cells/ml was seeded in a 6-well plate. After 6 h, N-terminal nanoLuc NUDT5 and Halo-tag CRBN were then transfected into the cells using Fugene HD transfection reagent (E2312, Promega). The transfected HEK293 (220,000 cells/ml) were then replated onto a 384-well plate containing compounds. After 4 h incubation, NanoLuc substrate was added into each well and the signals were measured by PHERAstar Microplate Reader.\n(§2) Compounds were dispensed in the 384-well plates by using Echo Acoustic Dispenser."}, "[7]": {"biological_target": "T1, NUDT5", "experiment": "NUDT5 degradation by Western blot in HEK293 cells", "assay_type": "cell-based", "design": "endogenous in cells; host or cells: HEK293 (also CRBN knock-out HEK293 for A13)", "protocol": "For Western blots, proteins were separated on polyacrylamide gels with SDS running buffer (50 mM Tris, 380 mM Glycine, 7 mM SDS) and transferred to PVDF membranes. All membranes were then blocked with blocking buffer (5% w/v milk powder, BioRad) in TBST (50 mM Tris (tris(hydroxymethylaminomethane), 150 mM NaCl, 0.05% (v/v) Tween 20, adjusted to pH 7.6) Proteins were probed with antibodies against phospho-AMPK (50081S, 1:2000, Cell Signaling Technologies), AMPK (5832S, 1:2000, Cell Signaling Technologies), PML (ab179466, 1:1000, abeam), PARP8 (NBP213733, 1:1000, Novus Biologicals), ATF2/7 (82870, 1:1000, Cell Signaling Technologies), alpha-Tubulin (ab7291, 1:1000, Abeam), phospho-UBTF (ab182583, 1:1000, abeam), UBTF (HPA006385, 1:1000, Sigma), RBM38 (AV40862, 1:1000, Sigma), or NUDT5 (ab129172, 1:1000, abeam), detected by HRP (horse-radish peroxidase) conjugated donkey anti-rabbit IgG antibody (Pierce) or donkey anti-mouse antibody IgG antibody (Pierce) and visualized with Clarity ECL Western Blotting substrate (BioRad), according to provided protocol."}, "[8]": {"biological_target": "T4, luciferase-tagged NUDT5 (Homo sapiens, UniProt Q9UKK9)", "T4 construct": "expressed in transfected cells; host or cells: HEK293T", "experiment": "NanoBRET target engagement assay", "assay_type": "cell-based", "conditions": "live cells, 2 h", "protocol": "For NanoBRET target engagement assay, intracellular TE Nano-Glo substrate/inhibitor (N2161, Promega) was used according to the manufacturer's instruction. In brief, 200,000 HEK293T cells/ml was seeded in a T-75 flask. N-terminal NanoLuciferse NUDT5 was reverse transfected into the cells using Fugene HD transfection reagent (E2312, Promega). After 24 h the transfected HEK293 (200,000 cells/ml) were replated onto a 384-well plate containing compounds. 2.5 nM NU008116a was used as the final tracer concentration. After 2 h, NanoLuc substrate and inhibitor was added into each well and the signals were measured by PHERAstar Microplate Reader.\nas §2"}}, "note": "Entries after “also recorded” stand apart in the source; their conditions may differ."}
{"smiles": "C=CC(=O)N1CCC[C@@H](n2nc(-c3ccc(Oc4ccccc4)cc3)c3c(N)ncnc32)C1", "note": "[Ibrutinib, reference compound]", "values": [{"measurement": "IC50", "setting": "[1]", "result": "375 ± 12", "unit": "nM"}, {"measurement": "IC50", "setting": "[2]", "result": "974 ± 26", "unit": "nM"}]}
{"smiles": "Cn1c(=O)c2c(nc(N3CCNCC3)n2Cc2nnc(-c3ccc(Cl)c(Cl)c3)o2)n(C)c1=O", "note": "[TH5427, reference compound]", "values": [{"measurement": "effect on adenosine toxicity / viability", "setting": "[3]", "result": "did not affect the viability"}, {"measurement": "rescue of 6-TG toxicity", "setting": "[4]", "result": "did not show a rescue; also recorded: neither the negative control nor TH5427 gave any significant effects"}]}
{"smiles": "Nc1ncnc2c1ncn2[C@@H]1O[C@H](CO)[C@@H](O)[C@H]1O", "note": "[adenosine]", "values": [{"measurement": "effect of addition on proliferation", "setting": "[3]; cyclohydrolase mutant cells, 50 μM adenosine", "result": "caused a strong antiproliferative response"}, {"measurement": "effect of addition on growth", "setting": "[5]", "result": "enhanced the growth"}]}
{"smiles": "Cn1c(=O)c2c(nc(N3CCN(CC4CCN(c5ccc6c(c5)C(=O)N(C5CCC(=O)NC5=O)C6=O)CC4)CC3)n2Cc2nnc(-c3ccc(Cl)c(Cl)c3)o2)n(C)c1=O", "note": "(stereo not drawn) [Compound 070, 7-((5-(3,4-dichlorophenyl)-1,3,4-oxadiazol-2-yl)methyl)-8-(4-((1-(2-(2,6-dioxopiperidin-3-yl)-1,3-dioxoisoindolin-5-yl)piperidin-4-yl)methyl)piperazin-1-yl)-1,3-dimethyl-3,7-dihydro-1H-purine-2,6-dione]", "values": [{"measurement": "ternary complex formation between NUDT5 and CRBN", "setting": "[6]", "result": "induced the ternary complex"}, {"measurement": "NUDT5 degradation at 100 nM, 20 h (%)", "setting": "[7]; 100 nM, 20 h", "result": 39, "unit": "%"}, {"measurement": "NUDT5 degradation", "setting": "[7]; Western blot, FIG. 12A", "result": "reasonable NUDT5 degrader"}]}
{"smiles": "CN1C(=O)CCC(N2C(=O)c3ccc(N4CCN(CC5CCN(C(=O)N6CCN(c7nc8c(c(=O)n(C)c(=O)n8C)n7Cc7nnc(-c8ccc(Cl)c(Cl)c8)o7)CC6)CC5)CC4)cc3C2=O)C1=O", "note": "(stereo not drawn) [dNUDT5nc, 7-((5-(3,4-dichlorophenyl)-1,3,4-oxadiazol-2-yl)methyl)-1,3-dimethyl-8-(4-(4-((4-(2-(1-methyl-2,6-dioxopiperidin-3-yl)-1,3-dioxoisoindolin-5-yl)piperazin-1-yl)methyl)piperidine-1-carbonyl)piperazin-1-yl)-3,7-dihydro-1H-purine-2,6-dione]", "values": [{"measurement": "NUDT5 engagement / recruitment", "setting": "[8]", "result": "engaged their cognate target NUDT5 in live cells"}, {"measurement": "effect on adenosine toxicity / viability", "setting": "[3]", "result": "did not cause any effects"}, {"measurement": "rescue of 6-TG toxicity", "setting": "[4]", "result": "neither the negative control nor TH5427 gave any significant effects"}]}
